# Results: patent US8729073B2, “5-methyl-1-(naphthalen-2-yl)-1H-pyrazole derivatives and their use in potentiating the effect of opioid analgesics” (Laboratorios Del Dr. Esteve, S.A., priority 2010, dated 2014)
# “Also recorded” adds a separate entry of the source.
# Assays:
# [1] = test system: capsaicin-induced neuropathic pain; assay: Effect on capsaicin in development of mechanical allodynia (von Frey filaments); type: in vivo; details: mice, test compound given before 1 μg capsaicin (1% DMSO) injected into paw, FIG. 2
# Protocol: Effect on Capsaicin in Development of Mechanical Allodynia
# This model uses the von-Frey Filaments and is a model to test the effects or symptoms of neuropathic pain, allodynia etc.
# Interest of the model: • The injection of 1 μg of capsaicin to experimental animals produces acute pain followed by hyperalgesia/allodynia • The mechanisms involved in capsaicin-induced acute pain and hyperalgesia are relatively well known (mainly activation of peripheral nociceptors and sensitization of spinal cord neurons, respectively)
# After habituation mice were according to FIG. 1 first treated with the test-compound (or solvent in controls). Then 1 μg capsaicin (1% DMSO) is injected into their paw resulting in developing pain in the effected paw. The effected paw is then treated with a mechanical stimulus and the latency time before the paw is withdrawn is measured.
# morphine analgesia = assay: Tail-flick test in mice, modulation of morphine analgesia; type: in vivo; details: male CD1 mice; Example n^o 1 5-20 mg/kg i.p. coadministered with fixed dose of morphine 2 mg/kg s.c.; 30 min post-administration; FIG. 3
compound,measurement,setting,value
"Cc1cc(OCCN2CCOCC2=O)nn1-c1ccc2ccccc2c1 [Example n^o 1, 4-(2-(5-methyl-1-(naphthalen-2-yl)-1H-pyrazol-3-yloxy)ethyl)morpholin-3-one]","analgesia in capsaicin-induced neuropathic pain (latency time before the paw is withdrawn, mechanical stimulus)",[1],dose dependency of the treatment with the compound of example 1 showing analgesia in capsaicin-induced neuropathic pain
same,"potentiation of morphine analgesia (% Analgesia, tail-flick latency)",morphine analgesia,enhances the analgesic effect of a fixed dose of morphine; also recorded: dose-dependently increased the analgesic efficacy of morphine
